According to patent US20210395256A1, “TYROSINE KINASE INHIBITORS, COMPOSITIONS AND METHODS THERE OF” (Betta Pharmaceuticals Co., Ltd., priority 2018, published 2021):

Molecular target: TrkA kinase (Homo sapiens, UniProt P04629)
Test: TrkA kinase assay (mobility shift assay)
Format: biochemical
Conditions: class symbols; read-out: Trk A Kinase IC50
Description: Example 201 TrkA Kinase Assay
Mobility shift assay was used to determine the inhibitory activity of compounds against TrkA kinase. Assay procedures are as follows:
1× Kinase base buffer (50 mM HEPES, pH 7.5; 0.0015% Brij-35)
Stop buffer (100 mM HEPES, pH 7.5; 0.015% Brij-35; 0.2% Coating Reagent #3; 50 mM EDTA)
1) Dilute the compound to 50× of the final desired highest inhibitor concentration in reaction by 100% DMSO. Transfer 100 μl of this compound dilution to a well in a 96-well plate.
2) For all compounds, transfer the compound in tubes to one well on 96-well storage plate and serially dilute the compound by transferring 30 μl to 60 μl of 100% DMSO in the next well and so forth for a total of 10 concentrations.
3) Add 100 μl of 100% DMSO to two empty wells for no compound control and no enzyme control in the same 96-well plate. Mark the plate as source plate.
4) Prepare intermediate plate
Transfer 10 μl of compound from source plate to a new 96-well plate as the intermediate plate
Add 90 µl of 1× kinase buffer to each well of the intermediate plate.
Mix the compounds in intermediate plate for 10 min on shaker.
1) Transfer 5 μl of each well from the 96-well intermediate plate to a 384-well plate in duplicates. For example, A1 of the 96-well plate is transferred to A1 and A2 of the 384-well plate. A2 of the 96-well plate is transferred to A3 and A4 of the 384-well plate, and so on.
1) Prepare 2.5× enzyme solution
Add kinase in 1× kinase base buffer.
2) Prepare 2.5× peptide solution Add FAM-labeled peptide and ATP in the 1× kinase base buffer.
3) Assay plate already contains 5 μl of compound in 10% DMSO.
4) Transfer 2.5× enzyme solution to the assay plate
Add 10 μl of 2.5× enzyme solution to each well of the 384-well assay plate.
5) Incubate at room temperature for 10 min.
6) Transfer 2.5× peptide solution to the assay plate
Add 10 μl of 2.5× peptide solution to each well of the 384-well assay plate.
Kinase reaction conditions are shown as Table 11:
7) Kinase reaction and stop
Incubate at 28° C. for specified period of time.
Add 25 μl of stop buffer to stop reaction.
1) Copy conversion data from Caliper program.
2) Convert conversion values to inhibition values.
Percent inhibition=(max-conversion)/(max-min)*100.
“max” stands for DMSO control; “min” stands for low control.
3) Fit the data in XLFit excel add-in version 5.4.0.8 to obtain IC50 values.
Equation used is: Y=Bottom+(Top-Bottom)/(1+(IC50/X)^HillSlope)

Sequence of TrkA kinase (P04629 33-796): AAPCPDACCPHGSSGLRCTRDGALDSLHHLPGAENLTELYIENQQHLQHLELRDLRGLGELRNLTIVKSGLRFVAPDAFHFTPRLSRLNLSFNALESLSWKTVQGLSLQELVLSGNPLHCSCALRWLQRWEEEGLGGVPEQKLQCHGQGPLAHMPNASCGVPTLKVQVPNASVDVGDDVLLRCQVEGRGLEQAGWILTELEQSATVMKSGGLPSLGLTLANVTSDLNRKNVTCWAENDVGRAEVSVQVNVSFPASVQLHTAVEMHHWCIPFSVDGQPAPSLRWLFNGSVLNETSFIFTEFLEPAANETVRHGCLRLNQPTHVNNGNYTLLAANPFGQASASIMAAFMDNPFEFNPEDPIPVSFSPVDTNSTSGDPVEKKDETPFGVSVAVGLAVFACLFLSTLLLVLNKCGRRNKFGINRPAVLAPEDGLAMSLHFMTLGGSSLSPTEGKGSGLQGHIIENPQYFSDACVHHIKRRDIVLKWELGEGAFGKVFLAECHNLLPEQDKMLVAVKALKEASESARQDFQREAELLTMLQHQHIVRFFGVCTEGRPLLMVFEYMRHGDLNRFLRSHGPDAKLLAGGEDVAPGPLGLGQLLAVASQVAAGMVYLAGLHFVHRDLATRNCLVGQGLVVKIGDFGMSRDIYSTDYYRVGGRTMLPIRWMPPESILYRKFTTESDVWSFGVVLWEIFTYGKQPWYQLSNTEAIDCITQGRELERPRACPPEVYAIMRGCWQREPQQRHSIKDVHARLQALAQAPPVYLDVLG

IC50 | SMILES
≤ 10 nM | Oc1cc2nc(-c3cnn4ccc(N5CCC[C@@H]5c5cc(F)ccc5F)nc34)[nH]c2cc1O [Compound 117, (R)-2-(5-(2-(2,5-difluorophenyl)pyrrolidin-1-yl)pyrazolo[1,5-a]pyrimidin-3-yl)-1H-benzo[d]imidazole-5,6-diol]
≤ 10 nM | Fc1ccc(F)c([C@H]2CCCN2c2ccn3ncc(-c4nnc(-c5ccnc(N6CCOCC6)c5)[nH]4)c3n2)c1 [Compound 6, (R)-4-(4-(5-(5-(2-(2,5-difluorophenyl)pyrrolidin-1-yl)pyrazolo[1,5-a]pyrimidin-3-yl)-4H-1,2,4-triazol-3-yl)pyridin-2-yl)morpholine]
> 50 nM | Fc1ccc(F)c([C@H]2CCCN2c2ccn3ncc(-c4nc5ccc(N6CCN7CCC[C@@H]7C6)cc5s4)c3n2)c1 [Compound 63, 2-(5-((R)-2-(2,5-difluorophenyl)pyrrolidin-1-yl)pyrazolo[1,5-a]pyrimidin-3-yl)-6-((R)-hexahydropyrrolo[1,2-a]pyrazin-2(1H)-yl)benzo[d]thiazole]
≤ 10 nM | Fc1ccc(F)c([C@H]2CCCN2c2ccn3ncc(-c4nc5c([nH]4)COCC5)c3n2)c1 [Compound 188, (R)-2-(5-(2-(2,5-difluorophenyl)pyrrolidin-1-yl)pyrazolo[1,5-a]pyrimidin-3-yl)-3,4,6,7-tetrahydropyrano[3,4-d]imidazole]
≤ 10 nM | CC(O)c1ccc2nc(-c3cnn4ccc(N5CCC[C@@H]5c5cc(F)ccc5F)nc34)oc2c1 (stereo partly drawn) [Compound 68, 1-(2-(5-((R)-2-(2,5-difluorophenyl)pyrrolidin-1-yl)pyrazolo[1,5-a]pyrimidin-3-yl)benzo[d]oxazol-6-yl)ethan-1-ol]
10 to 50 nM | Fc1ccc(F)c([C@H]2CCCN2c2ccn3ncc(-c4nc5nc6ccccc6nc5[nH]4)c3n2)c1 [Compound 121, (R)-2-(5-(2-(2,5-difluorophenyl)pyrrolidin-1-yl)pyrazolo[1,5-a]pyrimidin-3-yl)-1H-imidazo[4,5-b]quinoxaline]
> 50 nM | CCC(O)(c1nnc(-c2cnn3ccc(N4CCC[C@@H]4c4cc(F)ccc4F)nc23)[nH]1)C(F)(F)F (stereo partly drawn) [Compound 28, 2-(5-(5-((R)-2-(2,5-difluorophenyl)pyrrolidin-1-yl)pyrazolo[1,5-a]pyrimidin-3-yl)-4H-1,2,4-triazol-3-yl)-1,1,1-trifluorobutan-2-ol]

Same assay, conditions: numeric values; read-out: Trk A Kinase IC50

IC50 | SMILES
1.2 nM | Fc1ccc(F)c([C@H]2CCCN2c2ccn3ncc(-c4nnc(-c5ccc6ncccc6c5)[nH]4)c3n2)c1 [Compound 56, (R)-6-(5-(5-(2-(2,5-difluorophenyl)pyrrolidin-1-yl)pyrazolo[1,5-a]pyrimidin-3-yl)-4H-1,2,4-triazol-3-yl)quinoline]
0.8 nM | OB1OCc2ccc(-c3nnc(-c4cnn5ccc(N6CCC[C@@H]6c6cc(F)ccc6F)nc45)[nH]3)cc21 [Compound 45, (R)-6-(5-(5-(2-(2,5-difluorophenyl)pyrrolidin-1-yl)pyrazolo[1,5-a]pyrimidin-3-yl)-4H-1,2,4-triazol-3-yl)benzo[c][1,2]oxaborol-1(3H)-ol]
11.7 nM | CN1CCC(c2nnc(-c3cnn4ccc(N5CCC[C@@H]5c5cc(F)ccc5F)nc34)[nH]2)CC1 [Compound 38, (R)-5-(2-(2,5-difluorophenyl)pyrrolidin-1-yl)-3-(5-(1-methylpiperidin-4-yl)-4H-1,2,4-triazol-3-yl)pyrazolo[1,5-a]pyrimidine]
0.96 nM | Fc1ccc(F)c([C@H]2CCCN2c2ccn3ncc(-c4nc5ccc(F)cc5[nH]4)c3n2)c1 [Compound 74, (R)-5-(2-(2,5-difluorophenyl)pyrrolidin-1-yl)-3-(6-fluoro-1H-benzo[d]imidazol-2-yl)pyrazolo[1,5-a]pyrimidine]
13.5 nM | Fc1ccc(F)c([C@H]2CCCN2c2ccn3ncc(-c4nc5c(Cl)ccc(Cl)c5[nH]4)c3n2)c1 [Compound 104, (R)-3-(4,7-dichloro-1H-benzo[d]imidazol-2-yl)-5-(2-(2,5-difluorophenyl)pyrrolidin-1-yl)pyrazolo[1,5-a]pyrimidine]
